Source: US10358458B2, “4′-vinyl substituted nucleoside derivatives as inhibitors of respiratory syncytial virus RNA replication” (Riboscience LLC, priority 2014, dated 2019)

Target: T1, RSV polymerase (Human respiratory syncytial virus A, UniProt P28887)
T1 construct: RSV polymerase was obtained from RSV infected A549 cells; endogenous in cells; host or cells: RSV infected A549 cells (virus-encoded polymerase, detergent preparation)
Test: RSV polymerase assay (inhibition of RNA synthesis by RSV polymerase)
Format: biochemical
Details: nucleoside triphosphate analogs; RSV polymerase from RSV infected A549 cells; 33P-CTP incorporation into nascent RSV RNA
Protocol: The RSV polymerase assay measures the ability of the nucleoside triphosphates derived from compounds of formula I to inhibit the RSV polymerase. RSV polymerase was obtained from RSV infected A549 cells. RSV polymerase activity was measured using RSV polymerase preparation (stored in 10 mM Tris-acetate (pH 8), 10 mM K-acetate, 1.5 mM MgCl2, 0.5% deoxycholate and 1% Tween-40) in the a buffer containing 50 mM Tris-HCL, pH8, 100 mM KCl, 5 mM MgCl2, 1 mM DTT and 0.2 mg/ml BSA in the presence of 50 μM ATP, GTP and UTP, 1 μM CTP and 3.5 μCi ^33P-labeled CTP (10 mCi/mL). The amount of nucleotides incorporated into nascent RSV RNA was determined TCA precipitation and scintillation counting.
The polymerase and replication activities of RSV were measured in the presence and absence of different concentrations of compounds to determine the degree of inhibition by the compounds.
The compound concentration at which the enzyme-catalyzed rate is reduced by 50% (IC50) was calculated by fitting the data to equation (1),
[formula] where “Y” corresponds to the relative enzyme activity (in %), “% Min” is the residual relative activity at saturating compound concentration, “% Max” is the relative maximum enzymatic activity, X corresponds to the compound concentration, and “S” is the Hill coefficient (or slope).

T1 sequence (P28887 whole entry): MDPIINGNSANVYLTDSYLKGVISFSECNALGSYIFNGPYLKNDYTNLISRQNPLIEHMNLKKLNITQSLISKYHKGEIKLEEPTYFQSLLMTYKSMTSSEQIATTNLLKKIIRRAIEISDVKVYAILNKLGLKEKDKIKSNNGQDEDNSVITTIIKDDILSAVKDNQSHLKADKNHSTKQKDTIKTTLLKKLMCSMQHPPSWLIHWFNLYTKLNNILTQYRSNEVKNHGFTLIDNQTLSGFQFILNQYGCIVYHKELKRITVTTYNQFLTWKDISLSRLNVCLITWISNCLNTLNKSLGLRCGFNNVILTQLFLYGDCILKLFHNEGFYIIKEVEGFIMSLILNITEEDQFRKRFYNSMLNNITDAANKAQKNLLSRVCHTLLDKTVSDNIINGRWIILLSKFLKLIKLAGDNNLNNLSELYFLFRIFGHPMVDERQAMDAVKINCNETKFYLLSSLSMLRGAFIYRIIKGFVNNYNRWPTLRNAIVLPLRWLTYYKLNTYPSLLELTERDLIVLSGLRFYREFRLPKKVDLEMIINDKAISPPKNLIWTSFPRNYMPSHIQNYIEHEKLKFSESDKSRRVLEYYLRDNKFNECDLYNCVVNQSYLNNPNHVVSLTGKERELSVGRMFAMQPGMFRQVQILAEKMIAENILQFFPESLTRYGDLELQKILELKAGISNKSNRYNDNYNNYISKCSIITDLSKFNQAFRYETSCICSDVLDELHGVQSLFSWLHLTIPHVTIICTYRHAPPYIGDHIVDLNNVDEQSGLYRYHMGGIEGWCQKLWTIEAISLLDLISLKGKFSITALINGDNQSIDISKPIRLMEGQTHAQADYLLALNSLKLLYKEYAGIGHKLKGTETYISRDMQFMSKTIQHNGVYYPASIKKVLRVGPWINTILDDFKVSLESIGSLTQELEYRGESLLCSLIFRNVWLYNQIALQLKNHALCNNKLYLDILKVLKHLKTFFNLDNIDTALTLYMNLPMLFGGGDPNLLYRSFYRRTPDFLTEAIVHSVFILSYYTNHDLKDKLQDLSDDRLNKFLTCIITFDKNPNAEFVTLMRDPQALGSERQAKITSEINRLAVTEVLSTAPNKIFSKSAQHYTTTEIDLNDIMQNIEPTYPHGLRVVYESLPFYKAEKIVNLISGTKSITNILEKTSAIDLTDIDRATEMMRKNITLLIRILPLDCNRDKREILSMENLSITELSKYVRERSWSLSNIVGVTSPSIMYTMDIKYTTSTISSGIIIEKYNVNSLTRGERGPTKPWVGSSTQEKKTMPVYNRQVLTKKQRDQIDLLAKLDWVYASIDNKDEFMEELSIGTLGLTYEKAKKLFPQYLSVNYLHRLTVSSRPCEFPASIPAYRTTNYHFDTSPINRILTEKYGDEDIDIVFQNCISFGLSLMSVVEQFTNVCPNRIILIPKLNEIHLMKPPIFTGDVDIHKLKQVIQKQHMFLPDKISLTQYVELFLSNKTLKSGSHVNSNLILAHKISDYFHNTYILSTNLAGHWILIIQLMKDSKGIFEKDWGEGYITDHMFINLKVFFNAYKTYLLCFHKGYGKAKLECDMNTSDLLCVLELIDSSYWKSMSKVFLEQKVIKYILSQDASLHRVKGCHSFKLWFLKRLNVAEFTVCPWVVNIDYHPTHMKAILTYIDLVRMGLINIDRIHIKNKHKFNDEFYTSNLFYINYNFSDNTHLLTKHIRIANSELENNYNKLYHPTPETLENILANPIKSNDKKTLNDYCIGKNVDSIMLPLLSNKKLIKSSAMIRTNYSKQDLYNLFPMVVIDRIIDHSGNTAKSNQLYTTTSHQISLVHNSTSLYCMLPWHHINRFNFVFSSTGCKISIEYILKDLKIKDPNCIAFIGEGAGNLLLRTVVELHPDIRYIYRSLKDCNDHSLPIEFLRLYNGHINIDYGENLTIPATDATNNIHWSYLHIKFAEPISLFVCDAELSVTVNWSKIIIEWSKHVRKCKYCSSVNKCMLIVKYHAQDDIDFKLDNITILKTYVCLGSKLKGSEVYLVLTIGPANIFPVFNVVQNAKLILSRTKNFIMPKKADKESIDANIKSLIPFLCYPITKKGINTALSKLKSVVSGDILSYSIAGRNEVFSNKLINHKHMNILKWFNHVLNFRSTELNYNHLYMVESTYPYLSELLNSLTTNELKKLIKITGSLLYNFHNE
T1 sequence (P03421 whole entry, further chain): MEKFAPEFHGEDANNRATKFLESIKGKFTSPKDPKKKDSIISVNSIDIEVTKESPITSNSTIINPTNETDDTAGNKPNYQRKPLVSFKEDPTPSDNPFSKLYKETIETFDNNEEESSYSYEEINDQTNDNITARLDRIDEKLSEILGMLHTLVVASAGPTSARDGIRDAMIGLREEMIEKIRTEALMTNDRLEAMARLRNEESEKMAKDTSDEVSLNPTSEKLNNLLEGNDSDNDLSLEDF

C=C[C@]1(COP(=O)(O)OP(=O)(O)OP(=O)(O)O)O[C@@H](n2ccc(=O)[nH]c2=O)[C@H](O)[C@@H]1O [II-1]
IC50: < 1000 nM

C=C[C@]1(COP(=O)(O)OP(=O)(O)OP(=O)(O)O)O[C@@H](n2ccc(N)nc2=O)[C@H](O)[C@@H]1O [II-2]
IC50: < 1000 nM

C=C[C@]1(COP(=O)(O)OP(=O)(O)OP(=O)(O)O)O[C@@H](n2cnc3c(N)ncnc32)[C@H](O)[C@@H]1O [II-3]
IC50: < 1000 nM
